In patent US12590062B2, “PD-1/PD-L1 inhibitors” (Gilead Sciences, Inc., priority 2017, dated 2026):

Experiments:
[1] = biological target: T1, PD-1/PD-L1 interaction (Homo sapiens, UniProt Q9NZQ7); test: PD-1/PD-L1 NFAT reporter co-culture assay; assay type: cell-based; conditions: Jurkat PD-1 NFAT-luciferase cells co-cultured with aAPC-PD-L1 CHO cells, 6 hrs at 37° C.; read-out: EC50 NFAT Luciferase
T1 construct: expressed in transfected cells; host or cells: CHO cells (aAPC-PD-L1) co-cultured with Jurkat cells overexpressing PD-1 and an NFAT-luciferase reporter
Method in brief: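 Compounds are scored by restoration of NFAT-luciferase signal in PD-1-expressing Jurkat cells cultured 6 h at 37 °C on CHO cells presenting anti-CD3 and PD-L1; EC50 values derive from four-parameter curve fitting.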

[2] = biological target: T2, PD-L1 (Homo sapiens, UniProt Q9NZQ7); test: PD-L1/PD-L1 dimerization biochemical protein-protein interaction assay (ALPHA); assay type: binding; conditions: compound-induced PD-L1 dimerization, head prints '1 nM' (0.5 nM His-tagged PD-L1 and 0.5 nM FLAG-tagged PD-L1), read-out: AC50 PDL1 Dimer Alpha 1 nM
T2 construct: determine if they can specifically dimerize the extracellular domains of PD-L1
Method in brief: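 ALPHA proximity assay of compound-induced dimerization of 0.5 nM His-tagged and 0.5 nM FLAG-tagged PD-L1 extracellular domains in Hepes pH 7.4 buffer, 2 h at 25 °C. Anti-His acceptor then anti-FLAG donor beads, 60 min each; AC50 from four-parameter fit.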

[3] = biological target: T3, interaction between the recombinant extracellular domain (ECD) of PD-1 and native cell-bound PD-L1 (Homo sapiens, UniProt Q9NZQ7); test: CHO/PD-L1 cell capture assay; assay type: cell-based; conditions: CHO cells overexpressing PD-L1, pre-incubated 1 hr with compound, captured on biotinylated Fc-PD-1 coated plates, 75 min at room temperature
T3 construct: expressed in transfected cells
Method in brief: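 CHO cells stably overexpressing PD-L1 were pre-incubated 1 hr with compound, then captured 75 min at room temperature on biotinylated Fc-PD-1 ECD bound to streptavidin plates. After glutaraldehyde/Draq5 fixation-staining, captured cells were counted by high-content microscopy; EC50 from four-parameter dose-response fits.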

T1 sequence (Q9NZQ7 19-290): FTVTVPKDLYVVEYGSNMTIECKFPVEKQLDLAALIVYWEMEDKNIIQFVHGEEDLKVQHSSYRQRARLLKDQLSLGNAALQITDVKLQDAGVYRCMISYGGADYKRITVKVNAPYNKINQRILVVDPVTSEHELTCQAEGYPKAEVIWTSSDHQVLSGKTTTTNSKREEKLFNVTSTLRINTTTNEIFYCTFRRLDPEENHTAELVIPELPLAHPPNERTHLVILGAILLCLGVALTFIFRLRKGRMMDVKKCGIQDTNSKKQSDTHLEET
T3 sequence (Q9NZQ7 19-290): as above
T2 sequence (Q9NZQ7 19-238 limits assumed): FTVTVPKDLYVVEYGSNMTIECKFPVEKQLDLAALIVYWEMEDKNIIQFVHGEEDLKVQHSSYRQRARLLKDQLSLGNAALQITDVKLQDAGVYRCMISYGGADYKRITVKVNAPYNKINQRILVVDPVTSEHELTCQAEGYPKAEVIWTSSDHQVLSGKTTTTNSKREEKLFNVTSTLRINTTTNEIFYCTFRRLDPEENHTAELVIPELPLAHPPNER
T2 sequence (Q9NZQ7 19-238 limits assumed): as above

Row | SMILES | EC50 [1] [nM] | AC50 [2] [nM] | EC50 [3] [nM]
1 | Cc1c(COc2nc(OCc3cc(C#N)cc(C#N)c3)c(CN[C@@H](CO)C(=O)O)cc2Cl)cccc1-c1cccc(COc2nc(OCc3cc(C#N)cc(C#N)c3)c(CN[C@@H](CO)C(=O)O)cc2Cl)c1C [Example 124, (2S,2′S)-2,2′-((((((2,2′-dimethyl-[1,1′-biphenyl]-3,3′-diyl)bis(methylene))bis(oxy))bis(5-chloro-2-((3,5-dicyanobenzyl)oxy)pyridine-6,3-diyl))bis(methylene))bis(azanediyl))bis(3-hydroxypropanoic acid)] | 74 | ≥ 10000 | 147
2 | Cc1c(COc2nc(OC[C@H]3CCC(=O)N3)c(CNCC(=O)O)cc2Br)cccc1-c1cccc(COc2nc(OC[C@H]3CCC(=O)N3)c(CNCC(=O)O)cc2Br)c1C [Example 129, 2,2′-((((((2,2′-dimethyl-[1,1′-biphenyl]-3,3′-diyl)bis(methylene))bis(oxy))bis(5-bromo-2-(((R)-5-oxopyrrolidin-2-yl)methoxy)pyridine-6,3-diyl))bis(methylene))bis(azanediyl))diacetic acid] | 198 | 167 | 221
3 | Cc1c(COc2nc(OC[C@@H]3CCC(=O)N3)c(CNCC(=O)O)cc2Br)cccc1-c1cccc(COc2nc(OC[C@@H]3CCC(=O)N3)c(CNCC(=O)O)cc2Br)c1C [Example 130, 2,2′-((((((2,2′-dimethyl-[1,1′-biphenyl]-3,3′-diyl)bis(methylene))bis(oxy))bis(5-bromo-2-(((S)-5-oxopyrrolidin-2-yl)methoxy)pyridine-6,3-diyl))bis(methylene))bis(azanediyl))diacetic acid] | 164 | 237 | 123
4 | Cc1c(COc2nc(OCCc3cncnc3)c(CNCC(=O)O)cc2Cl)cccc1-c1cccc(COc2nc(OCCc3cncnc3)c(CNCC(=O)O)cc2Cl)c1C [Example 133, 2,2′-((((((2,2′-dimethyl-[1,1′-biphenyl]-3,3′-diyl)bis(methylene))bis(oxy))bis(5-chloro-2-(2-(pyrimidin-5-yl)ethoxy)pyridine-6,3-diyl))bis(methylene))bis(azanediyl))diacetic acid] | 288 | 282 | 129
5 | Cc1c(COc2nc(OCCC(=O)N(C)C)c(CNC[C@@H](O)CC(=O)O)cc2Br)cccc1-c1cccc(COc2nc(OCCC(=O)N(C)C)c(CNC[C@@H](O)CC(=O)O)cc2Br)c1C [Example 135, (3S,3′S)-4,4′-((((((2,2′-dimethyl-[1,1′-biphenyl]-3,3′-diyl)bis(methylene))bis(oxy))bis(5-bromo-2-(3-(dimethylamino)-3-oxopropoxy)pyridine-6,3-diyl))bis(methylene))bis(azanediyl))bis(3-hydroxybutanoic acid)] | 812 | 250 | 221
6 | Cc1c(COc2nc(OCCCCC#N)c(CNC[C@@H](O)CC(=O)O)cc2Br)cccc1-c1cccc(COc2nc(OCCCCC#N)c(CNC[C@@H](O)CC(=O)O)cc2Br)c1C [Example 143, (3S,3′S)-4,4′-((((((2,2′-dimethyl-[1,1′-biphenyl]-3,3′-diyl)bis(methylene))bis(oxy))bis(5-bromo-2-(4-cyanobutoxy)pyridine-6,3-diyl))bis(methylene))bis(azanediyl))bis(3-hydroxybutanoic acid)] | 217 | 395 | 296
7 | Cc1c(COc2nc(OCCC(N)=O)c(CNCC(=O)O)cc2Cl)cccc1-c1cccc(COc2nc(OCCC(N)=O)c(CNCC(=O)O)cc2Cl)c1C [Example 146, 2,2′-((((((2,2′-dimethyl-[1,1′-biphenyl]-3,3′-diyl)bis(methylene))bis(oxy))bis(2-(3-amino-3-oxopropoxy)-5-chloropyridine-6,3-diyl))bis(methylene))bis(azanediyl))diacetic acid] | 2300 | 334 | 184
8 | COc1nc(OCc2cccc(-c3cccc(COc4nc(OC)c(CNCCC(=O)O)cc4Cl)c3C)c2C)c(Cl)cc1CNCCC(=O)O [Example 172, 3,3′-((((((2,2′-dimethyl-[1,1′-biphenyl]-3,3′-diyl)bis(methylene))bis(oxy))bis(5-chloro-2-methoxypyridine-6,3-diyl))bis(methylene))bis(azanediyl))dipropionic acid] | 139 | ≥ 10000 | 50.6
9 | COc1nc(OCc2cccc(-c3cccc(COc4nc(OC)c(CNCCCC(=O)O)cc4Cl)c3C)c2C)c(Cl)cc1CNCCCC(=O)O [Example 183, 4,4′-((((((2,2′-dimethyl-[1,1′-biphenyl]-3,3′-diyl)bis(methylene))bis(oxy))bis(5-chloro-2-methoxypyridine-6,3-diyl))bis(methylene))bis(azanediyl))dibutyric acid] | 141 | 260 | 69.1
10 | COc1nc(OCc2cccc(-c3cccc(COc4nc(OC)c(CNC[C@H](O)CC(=O)O)cc4Br)c3Cl)c2Cl)ccc1CNC[C@H](O)CC(=O)O [Example 192, (R)-4-(((6-((3′-(((3-Bromo-5-((((R)-3-carboxy-2-hydroxypropyl)amino)methyl)-6-methoxypyridin-2-yl)oxy)methyl)-2,2′-dichloro-[1,1′-biphenyl]-3-yl)methoxy)-2-methoxypyridin-3-yl)methyl)amino)-3-hydroxybutanoic acid] | 197 | 267 | 31.2
11 | Cc1c(COc2cc(OCc3cncc(C#N)c3)c(CNC[C@@H](O)CC(=O)O)cc2Cl)cccc1-c1cccc(-c2ccc3c(cnn3CCNC[C@@H](O)CC(=O)O)c2)c1C [Example 209, (S)-4-((4-((3′-(1-(2-(((S)-3-carboxy-2-hydroxypropyl)amino)ethyl)-1H-indazol-5-yl)-2,2′-dimethyl-[1,1′-biphenyl]-3-yl)methoxy)-5-chloro-2-((5-cyanopyridin-3-yl)methoxy)benzyl)amino)-3-hydroxybutanoic acid] | 73 | 70.5 | 13.1
12 | Cc1c(COc2cc(OCc3cncc(C#N)c3)c(CNC[C@@H](O)CC(=O)O)cc2Cl)cccc1-c1cccc(-c2ccc3sc(CNC[C@@H](O)CC(=O)O)cc3c2)c1C [Example 211] | 304 | 81.2 | 45.6
13 | COc1nc(OCc2cccc(-c3cccc(COc4nc(OC)c(CN5CCC[C@H]5C(=O)O)cc4Cl)c3C)c2C)c(Cl)cc1CN1CCC[C@H]1C(=O)O [Example 232, (2′S)-(((((2,2′-dimethyl-[1,1′-biphenyl]-3,3′-diyl)bis(methylene))bis(oxy))bis(5-chloro-2-methoxypyridine-6,3-diyl))bis(methylene))di-L-proline] | 331 | 314 | 142
14 | Cc1c(COc2cc(OCc3cncc(C#N)c3)c(CNC[C@@H](O)CC(=O)O)cc2Cl)cccc1-c1cccc(OCc2ccc(CNC[C@@H](O)CC(=O)O)cc2)c1C [Example 279, (S)-4-((4-(((3′-((4-((((S)-3-carboxy-2-hydroxypropyl)amino)methyl)-2-chloro-5-((5-cyanopyridin-3-yl)methoxy)phenoxy)methyl)-2,2′-dimethyl-[1,1′-biphenyl]-3-yl)oxy)methyl)benzyl)amino)-3-hydroxybutanoic acid] | 260 | 109 | 27.7
